Experiments:
[1] = system: cytochrome P450 (CyP450) metabolic enzymes; assay: CyP450 ethoxyresorufin assay on HepG2 cell units; format: cell-based, human
Method: A split-pool culture experiment was performed in order to assay tissue culture conditions that might affect a particular cellular process, namely the expression and/or activity of cytochrome P450 (CyP450) metabolic enzymes. Members of this class of enzyme, such as 1A1 and 1A2, can be assayed with the use of a substrate, ethoxyresorufin, that is enzymatically hydrolyzed to produce a product, resorufin, that has distinct fluorescence characteristics that can be used to measure CyP450 enzyme activity. The expression of CyP450 enzymes can be regulated by inducer molecules, such as β-naphthoflavone, and inhibitors such as α-naphthoflavone, quinidine, or aminotriazole. It is also possible for some molecules to induce expression of a CyP450 gene(s), but inhibit activity of the enzyme product of that gene. Therefore, complicated patterns of expression and activity can arise according to the pattern of serial exposure of cells to regulatory compounds. […]
For the CyP450 assay, aliquots of beads in growth medium were removed and the enzyme substrate ethoxyresorufin was added to a final concentration of 10 μM. The samples of beads were placed on a microscope slide with a cover slip, and observed immediately with an epifluorescent microscope using a standard filter set for Texas Red/rhodamine fluorescence (see FIG. 9). […]

mouse ES cells = assay: RT-PCR detection of differential gene expression in ES cell units after split-split culture; format: cell-based; details: DMEM, 1 μM, FIG. 11
Method: Pluripotent mouse ES cell units were cultured for five days in ES cell medium (see example 3), the ES medium was decanted and the cell units washed twice with PBS to remove traces of ES medium. The bead population was split into three groups, and the PBS decanted and replaced with one of (i) ES cell medium; (ii) Dulbecco's modified Eagle's medium (DMEM) with 10% fetal calf serum; or (iii) Chemically Defined Medium (CDM; Wiles M V, Johansson B M, 1999, Exp. Cell Res., vol 247, p. 241-8). After one hour culture under standard conditions, each of the three groups were split into three further groups, each of which was incubated in one of: (i) the medium in which the cell groups were cultured; the medium in which the cell groups were cultured including 1 μM LiCl; or (iii) the medium in which the cell groups were cultured including 1 μm retinoic acid (RA). Every other day half the medium was replaced with the respective fresh medium.
Cell units of mouse ES cells induced to differentiate by split-split culture (see example 4) were washed with PBS, and RNA prepared from the cell units using Rneasy reagents according to manufacturer's instructions (Qiagen). RNA samples were then used to prepare first strand cDNA with oligo-dT priming using reverse transcriptase according to the manufacturer's instructions (Invitrogen). […]

SMILES | P450 level / conversion of ethoxyresorufin to fluorescent product ([1]; HepG2 cell units following a split pool experiment, FIG. 9 Panels E/F) | time until enzyme activity (resorufin fluorescence) is evident after addition of ethoxyresorufin ([1]; HepG2 cell units on CYTODEX 3 treated in a control experiment, 10 μM ethoxyresorufin, control cells about 15-20 minutes) [min] | decrease in Oct4 (mouse ES cells)
O=c1cc(-c2ccccc2)oc2ccc3ccccc3c12 [β-naphthoflavone] | high levels of P450 | 5 to 10 | –
[Cl-].[Li+] [LiCl] | – | – | inhibited the reduction

— US9574174B2, “Cell culture” (PLASTICELL LIMITED, priority 2002, dated 2017)
